In patent publication US10000499B2, “Methyl diazepane orexin receptor antagonists” (MERCK SHARP & DOHME CORP., priority 2014, dated 2018):

Key:
[1] = target: T1, human orexin-2 receptor (Homo sapiens, UniProt O43614); experiment: FLIPR Ca2+ flux assay, OX2R; assay type: cell-based; details: for IC50: CHO cells expressing human orexin-2 receptor, agonist 70 pM Ala-6,12 orexin-A, read-out: OX2R FLIPR; for Fold Selective: OX2R over OX1R, from FLIPR values
T1 construct: expressed in transfected cells; host or cells: CHO cells (grown under G418 selection)
T1 sequence (O43614 1-444): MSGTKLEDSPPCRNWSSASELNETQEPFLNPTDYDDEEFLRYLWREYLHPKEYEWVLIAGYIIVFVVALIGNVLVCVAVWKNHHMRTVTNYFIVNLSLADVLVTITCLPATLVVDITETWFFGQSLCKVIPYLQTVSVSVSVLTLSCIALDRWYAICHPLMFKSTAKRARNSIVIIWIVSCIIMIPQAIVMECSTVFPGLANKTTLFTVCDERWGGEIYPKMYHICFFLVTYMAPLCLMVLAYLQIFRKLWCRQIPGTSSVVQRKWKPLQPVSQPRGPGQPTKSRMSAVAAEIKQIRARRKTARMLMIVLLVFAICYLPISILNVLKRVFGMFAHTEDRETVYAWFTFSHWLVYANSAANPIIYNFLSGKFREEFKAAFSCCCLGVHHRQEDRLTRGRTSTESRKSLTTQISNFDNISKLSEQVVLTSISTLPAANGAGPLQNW
Experimental: (§1) For intracellular calcium measurements, Chinese hamster ovary (CHO) cells expressing the rat orexin-1 receptor or the human orexin-2 receptor, are grown in Iscove's modified DMEM containing 2 mM L-glutamine, […], 1% hypoxanthine-thymidine supplement, 100 U/ml penicillin, 100 μg/ml streptomycin and 10% heat-inactivated fetal calf serum (FCS). The cells are seeded at 20,000 cells/well into Becton-Dickinson black 384-well clear bottom sterile plates coated with poly-D-lysine. All reagents were from GIBCO-Invitrogen Corp. The seeded plates are incubated overnight at 37° C. and 5% CO2. Ala-6,12 human orexin-A as the agonist is prepared as a 1 mM stock solution in 1% bovine serum albumin (BSA) and diluted in assay buffer (HBSS containing 20 mM HEPES, 0.1% BSA and 2.5 mM probenecid, pH7.4) for use in the assay at a final concentration of 70 pM. Test compounds are prepared as 10 mM stock solution in DMSO, then diluted in 384-well plates, first in DMSO, then assay buffer. On the day of the assay, cells are washed 3 times with 100 μl assay buffer and then incubated for 60 min (37° C., 5% CO2) in 60 μl assay buffer containing 1 μM Fluo-4AM ester, 0.02% pluronic acid, and 1% BSA, The dye loading solution is then aspirated and cells are washed 3 times with 100 μl assay buffer, 30 μl of that same buffer is left in each well. Within the Fluorescent Imaging Plate Reader (FLIPR, Molecular Devices), test compounds are added to the plate in a volume of 25 μl, incubated for 5 min and finally 25 μl of agonist is added. Fluorescence is measured for each well at 1 second intervals for 5 minutes and the height of each fluorescence peak is compared to the height of the fluorescence peak induced by 70 pM Ala-6,12 orexin-A with buffer in place of antagonist. […] The intrinsic orexin receptor antagonist activity of a compound which may be used in the present invention may be determined by these assays.

[2] = target: T2, rat orexin-1 receptor (Rattus norvegicus, UniProt P56718); experiment: FLIPR Ca2+ flux assay, OX1R; assay type: cell-based; details: CHO cells expressing rat orexin-1 receptor; agonist 70 pM Ala-6,12 orexin-A
T2 construct: expressed in transfected cells; host or cells: CHO cells (grown under G418 selection)
T2 sequence (P56718 1-416): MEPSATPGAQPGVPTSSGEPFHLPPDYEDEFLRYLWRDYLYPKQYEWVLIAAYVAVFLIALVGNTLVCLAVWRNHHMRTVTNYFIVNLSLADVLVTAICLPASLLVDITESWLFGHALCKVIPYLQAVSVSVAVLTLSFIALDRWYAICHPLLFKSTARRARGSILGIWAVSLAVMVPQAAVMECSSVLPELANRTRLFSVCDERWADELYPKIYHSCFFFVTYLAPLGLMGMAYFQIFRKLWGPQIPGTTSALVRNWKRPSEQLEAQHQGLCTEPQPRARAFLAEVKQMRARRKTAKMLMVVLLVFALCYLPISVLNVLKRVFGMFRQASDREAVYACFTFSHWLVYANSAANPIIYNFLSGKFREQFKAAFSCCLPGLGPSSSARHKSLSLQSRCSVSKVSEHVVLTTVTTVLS
Experimental: as §1

C[C@@H]1CCN(c2nccn3ccnc23)CCN1C(=O)c1ccccc1-n1nccn1 [Example 22, 8-[(5R)-5-methyl-4-{[2-(2H-1,2,3-triazol-2-yl)phenyl]carbonyl}-1,4-diazepan-1-yl]imidazo[1,2-a]pyrazine]
IC50 [1]: 50 nM | Fold Selective [1]: 200 | IC50 [2]: > 10 µM

C[C@@H]1CCN(c2nccn3ccnc23)CCN1C(=O)c1ccccc1C1CC1 [Example 23, 8-{(5R)-4-[(2-cyclopropylphenyl)carbonyl]-5-methyl-1,4-diazepan-1-yl}imidazo[1,2-a]pyrazine]
IC50 [1]: 29 nM | Fold Selective [1]: 344 | IC50 [2]: > 10 µM

C[C@@H]1CCN(c2nccn3nccc23)CCN1C(=O)c1ccccc1-n1nccn1 [Example 24, 4-[(5R)-5-methyl-4-{[2-(2H-1,2,3-triazol-2-yl)phenyl]carbonyl}-1,4-diazepan-1-yl]pyrazolo[1,5-a]pyrazine]
IC50 [1]: 113 nM | Fold Selective [1]: 88 | IC50 [2]: > 10 µM

C[C@@H]1CCN(c2nccn3ccnc23)CCN1C(=O)c1cccnc1-n1cccn1 [Example 25, 8-[(5R)-5-methyl-4-{[2-(1H-pyrazol-1-yl)pyridin-3-yl]carbonyl}-1,4-diazepan-1-yl]imidazo[1,2-a]pyrazine]
IC50 [1]: 126 nM | Fold Selective [1]: 79 | IC50 [2]: > 10 µM
